Laboratory results reported in PubChem BioAssay (NCI).
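Test compounds were applied to cells in 96-well plates for 48 hours at 5 doses. GI50 = concentration required for 50% inhibition of growth. TGI: concentration producing complete growth inhibition.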

Key:
Experiment in all cases: inhibition of tumour cell growth, NCI panel, 48 h
ACHN renal = system: ACHN renal
CAKI-1 renal = system: CAKI-1 renal
COLO 205 colon = system: COLO 205 colon
EKVX NSCLC = system: EKVX NSCLC
HT29 colon = system: HT29 colon
K-562 leukemia = system: K-562 leukemia
LOX IMVI melanoma = system: LOX IMVI melanoma
MALME-3M melanoma = system: MALME-3M melanoma
RXF 393 renal = system: RXF 393 renal
SF-539 CNS = system: SF-539 CNS
SK-MEL-28 melanoma = system: SK-MEL-28 melanoma
SNB-19 CNS = system: SNB-19 CNS
T-47D breast = system: T-47D breast
CCRF-CEM leukemia = system: CCRF-CEM leukemia
HL-60(TB) leukemia = system: HL-60(TB) leukemia
SR leukemia = system: SR leukemia
U251 CNS = system: U251 CNS
UACC-257 melanoma = system: UACC-257 melanoma
HOP-92 NSCLC = system: HOP-92 NSCLC

CC(=O)Nc1ccc2c3c(cc(O)c2c1)N(C(=O)CCCCCCC(=O)N1CC(CCl)c2c1cc(O)c1cc(NC(C)=O)ccc21)CC3CCl (stereo not given)
TGI (ACHN renal): 0.0345 µM
TGI (CAKI-1 renal): 0.894 µM
TGI (COLO 205 colon): 0.0161 µM
TGI (EKVX NSCLC): 0.475 µM
TGI (HT29 colon): > 100 µM
TGI (K-562 leukemia): > 100 µM
TGI (LOX IMVI melanoma): 0.361 µM
TGI (MALME-3M melanoma): 0.0233 µM
TGI (RXF 393 renal): 0.0185 µM
TGI (SF-539 CNS): 0.0413 µM
TGI (SK-MEL-28 melanoma): > 100 µM
TGI (SNB-19 CNS): 0.913 µM
TGI (T-47D breast): < 0.01 µM

COc1ccc(N2C(=O)C3c4[nH]c5ccc(Br)cc5c4C4CCC(C(C)(C)C)CC4C3C2=O)cc1 (stereo not given)
TGI (ACHN renal): > 100 µM
TGI (CAKI-1 renal): > 100 µM
TGI (CCRF-CEM leukemia): > 100 µM
TGI (COLO 205 colon): > 100 µM
TGI (EKVX NSCLC): > 100 µM
TGI (HL-60(TB) leukemia): > 100 µM
TGI (HT29 colon): > 100 µM
TGI (K-562 leukemia): > 100 µM
TGI (LOX IMVI melanoma): > 100 µM
TGI (MALME-3M melanoma): > 100 µM
TGI (RXF 393 renal): > 100 µM
TGI (SF-539 CNS): > 100 µM
TGI (SK-MEL-28 melanoma): > 100 µM
TGI (SNB-19 CNS): > 100 µM
TGI (SR leukemia): > 100 µM
TGI (U251 CNS): > 100 µM
TGI (UACC-257 melanoma): > 100 µM

CC1=C(O)C(=O)C2C(=O)C1C1Cc3ccccc3C21 (stereo not given)
TGI (ACHN renal): > 100 µM
TGI (CAKI-1 renal): > 100 µM
TGI (CCRF-CEM leukemia): > 100 µM
TGI (COLO 205 colon): > 100 µM
TGI (EKVX NSCLC): > 100 µM
TGI (HL-60(TB) leukemia): > 100 µM
TGI (HOP-92 NSCLC): > 100 µM
TGI (HT29 colon): > 100 µM
TGI (K-562 leukemia): > 100 µM
TGI (LOX IMVI melanoma): > 100 µM
TGI (MALME-3M melanoma): > 100 µM
TGI (RXF 393 renal): > 100 µM
TGI (SF-539 CNS): > 100 µM
TGI (SK-MEL-28 melanoma): > 100 µM
TGI (SNB-19 CNS): > 100 µM
TGI (SR leukemia): > 100 µM
TGI (U251 CNS): > 100 µM

CCCCCCCCCCCCCCCCCCNC(=S)/N=C\C1=C(O)c2ccccc2C1=O
TGI (ACHN renal): 26.2 µM
TGI (CAKI-1 renal): 31.2 µM
TGI (CCRF-CEM leukemia): 21.5 µM
TGI (COLO 205 colon): 29.1 µM
TGI (EKVX NSCLC): 28 µM
TGI (HL-60(TB) leukemia): > 100 µM
TGI (HOP-92 NSCLC): 14.1 µM
TGI (HT29 colon): 25 µM
TGI (LOX IMVI melanoma): 17 µM
TGI (MALME-3M melanoma): 28.1 µM
TGI (SF-539 CNS): 36.7 µM
TGI (SK-MEL-28 melanoma): 30.7 µM
TGI (SNB-19 CNS): 35.9 µM
TGI (T-47D breast): 37.2 µM
TGI (U251 CNS): 18.3 µM
TGI (UACC-257 melanoma): 33.6 µM

COc1ccc(C2SCC(=O)N2NC(=O)c2ccc(NC(C)=O)cc2)c(OC)c1 (stereo not given)
TGI (ACHN renal): > 100 µM
TGI (COLO 205 colon): > 100 µM
TGI (EKVX NSCLC): > 100 µM
TGI (HL-60(TB) leukemia): > 100 µM
TGI (HOP-92 NSCLC): > 100 µM
TGI (HT29 colon): > 100 µM
TGI (K-562 leukemia): > 100 µM
TGI (RXF 393 renal): > 100 µM
TGI (SF-539 CNS): > 100 µM
TGI (SK-MEL-28 melanoma): > 100 µM
TGI (SNB-19 CNS): > 100 µM
TGI (T-47D breast): > 100 µM
TGI (U251 CNS): > 100 µM
TGI (UACC-257 melanoma): > 100 µM

CC(C)NC(=O)N(Nc1ccccc1)C(C)(C)C
TGI (ACHN renal): > 100 µM
TGI (CAKI-1 renal): > 100 µM
TGI (CCRF-CEM leukemia): > 100 µM
TGI (COLO 205 colon): > 100 µM
TGI (EKVX NSCLC): > 100 µM
TGI (HL-60(TB) leukemia): > 100 µM
TGI (HOP-92 NSCLC): > 100 µM
TGI (HT29 colon): > 100 µM
TGI (K-562 leukemia): > 100 µM
TGI (LOX IMVI melanoma): > 100 µM
TGI (MALME-3M melanoma): > 100 µM
TGI (RXF 393 renal): > 100 µM
TGI (SF-539 CNS): > 100 µM
TGI (SK-MEL-28 melanoma): > 100 µM
TGI (SNB-19 CNS): > 100 µM
TGI (SR leukemia): > 100 µM
TGI (U251 CNS): > 100 µM
TGI (UACC-257 melanoma): > 100 µM

[N-]=[N+]=NC(c1cn(C2CC(O)C(CO)O2)c(=O)[nH]c1=O)C(Cl)I (stereo not given)
TGI (ACHN renal): > 100 µM
TGI (COLO 205 colon): > 100 µM
TGI (EKVX NSCLC): > 100 µM
TGI (HT29 colon): > 100 µM
TGI (RXF 393 renal): > 100 µM
TGI (SF-539 CNS): > 100 µM
TGI (SK-MEL-28 melanoma): > 100 µM
TGI (SNB-19 CNS): > 100 µM
TGI (T-47D breast): > 100 µM
TGI (U251 CNS): > 100 µM
TGI (UACC-257 melanoma): > 100 µM

Cc1ccc(S(=O)(=O)Oc2nc3ccccc3nc2OS(=O)(=O)c2ccc(C)cc2)cc1
TGI (ACHN renal): > 100 µM
TGI (CAKI-1 renal): 82.4 µM
TGI (CCRF-CEM leukemia): > 100 µM
TGI (COLO 205 colon): > 100 µM
TGI (EKVX NSCLC): > 100 µM
TGI (HL-60(TB) leukemia): > 100 µM
TGI (HT29 colon): > 100 µM
TGI (K-562 leukemia): > 100 µM
TGI (LOX IMVI melanoma): > 100 µM
TGI (MALME-3M melanoma): 35 µM
TGI (RXF 393 renal): > 100 µM
TGI (SF-539 CNS): > 100 µM
TGI (SK-MEL-28 melanoma): > 100 µM
TGI (SNB-19 CNS): > 100 µM
TGI (SR leukemia): > 100 µM
TGI (U251 CNS): > 100 µM
TGI (UACC-257 melanoma): > 100 µM

COc1ccccc1-c1cc(=O)c2cc3c(cc2[nH]1)OCO3
TGI (ACHN renal): > 100 µM
TGI (CCRF-CEM leukemia): > 100 µM
TGI (COLO 205 colon): 51.5 µM
TGI (EKVX NSCLC): > 100 µM
TGI (HL-60(TB) leukemia): > 100 µM
TGI (HT29 colon): > 100 µM
TGI (K-562 leukemia): > 100 µM
TGI (LOX IMVI melanoma): > 100 µM
TGI (MALME-3M melanoma): > 100 µM
GI50 (RXF 393 renal): 15.1 µM
TGI (RXF 393 renal): 56.2 µM
TGI (SF-539 CNS): 70.6 µM
TGI (SK-MEL-28 melanoma): > 100 µM
TGI (SNB-19 CNS): > 100 µM
TGI (SR leukemia): > 100 µM
TGI (U251 CNS): > 100 µM
TGI (UACC-257 melanoma): > 100 µM

CCOc1ccc(N/C(=C(/C(Cl)=C(/Cl)N2CCCCC2)[N+](=O)[O-])n2nnc3ccccc32)cc1
TGI (ACHN renal): 36 µM
TGI (CAKI-1 renal): 28.4 µM
TGI (COLO 205 colon): 42.5 µM
TGI (EKVX NSCLC): 36.9 µM
TGI (HOP-92 NSCLC): 42 µM
TGI (K-562 leukemia): > 100 µM
TGI (MALME-3M melanoma): 39.6 µM
TGI (SF-539 CNS): 36.9 µM
TGI (SK-MEL-28 melanoma): 34.2 µM
TGI (SNB-19 CNS): 44 µM
TGI (T-47D breast): 49.6 µM
TGI (U251 CNS): 30.8 µM
TGI (UACC-257 melanoma): 38.6 µM

O=C(O)CCSCc1ccccc1
TGI (ACHN renal): > 100 µM
TGI (CAKI-1 renal): > 100 µM
TGI (CCRF-CEM leukemia): > 100 µM
TGI (COLO 205 colon): > 100 µM
TGI (EKVX NSCLC): > 100 µM
TGI (HL-60(TB) leukemia): > 100 µM
TGI (HT29 colon): > 100 µM
TGI (K-562 leukemia): > 100 µM
TGI (LOX IMVI melanoma): > 100 µM
TGI (MALME-3M melanoma): > 100 µM
TGI (RXF 393 renal): > 100 µM
TGI (SF-539 CNS): > 100 µM
TGI (SK-MEL-28 melanoma): > 100 µM
TGI (SNB-19 CNS): > 100 µM
TGI (T-47D breast): > 100 µM
TGI (U251 CNS): > 100 µM
TGI (UACC-257 melanoma): > 100 µM
